These results are taken from PubChem BioAssay (NCI).

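Values below derive from 48-hour exposures of cells grown in 96-well plates, with endpoints linearly interpolated between the two concentrations bracketing the appropriate inhibition level. At the TGI there is no net growth.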 Bounds are passed on as bounds.

The subject of one experiment is HCT-116 colon. In words: DTP human tumour cell line panel, 48 h.
Turning to `CCC(=O)C(c1ccccc1)c1ccccn1` (stereo not given), the TGI (as a rule, the concentration at which net growth stops) is over 100 µM.

`CCCN=C1CC(C)Nc2ccccc2N1` (stereo not given): the TGI was over 100 µM.

`Cc1ccc(-c2cc(N)n(-c3nc4c([nH]3)c(=O)n(C)c(=O)n4C)n2)cc1`: the TGI was found to be 15.9 µM.

`Cc1sc2nc3n(c(=O)c2c1C)N=CN(c1ccccc1)C3` gave a TGI of over 100 µM.

Molecule `COC1O[C@H]2CCN(C(=O)OCc3ccccc3)[C@H]2[C@H]1OCc1ccccc1` (stereo not given in full) yielded a TGI of over 100 µM.

`COc1ccc(N2C(=O)C3c4[nH]c5ccc([N+](=O)[O-])cc5c4C4CCC(C(C)(C)C)CC4C3C2=O)cc1` (stereo not given) registered a TGI of 23.9 µM.

Take `O=C(O)c1ccc(NC(c2ccccc2)c2ccc3cccnc3c2O)cc1` (stereo not given): the TGI is over 100 µM.

`COc1ccc(-c2c(C#N)c(N)n(C3OC(CO)C(O)C(O)C3O)c(=S)c2C#N)cc1` (stereo not given) yielded a TGI of over 100 µM.

`CCOC(=O)c1sc2nc(SC)nc3c2c1N=CN3c1ccc(Br)cc1`: the TGI was over 100 µM.

Turning to `Cc1c(Cl)cccc1NC(=O)C(=O)C1C(=O)CC(C)(C)CC1=O`, the TGI is over 100 µM.

As to `O=c1[nH]c2nc3ccccc3c(=O)n2/c1=C/c1ccc(O)cc1`, the TGI was over 100 µM.

`CC[C@@H]1CC[C@@H]2[C@H](CC[C@]3(C)[C@@H](O)CC[C@@H]23)[C@H]1C(=O)O` returned a TGI of over 100 µM.

`Nc1nc(Cl)cc(NCC2(CO)CC(CCc3ccccc3)C2)n1` (stereo not given) registered a TGI of over 100 µM.

Turning to `O=c1c2ccccc2[nH]c(=S)n1-c1ccc(N=Nc2cccc3c(O)cccc23)cc1`, the TGI was over 100 µM.

The molecule `N#C/C(=C\NC(=S)Nc1ccc(S(=O)(=O)Nc2ccccn2)cc1)C(N)=O` gave a TGI of over 100 µM.

In the case of `CC(=O)NC1C(OCc2ccccc2)OC(CO)C(O)C1OCC(=O)N[C@@H](C)C(=O)N[C@H](CCC(=O)NCCNCCNc1c2ccccc2nc2cccc([N+](=O)[O-])c12)C(N)=O` (stereo not given in full), the concentration for total growth inhibition (TGI) was 54.8 µM.

In turn, `c1cc2nnc1SCCSCCSc1ccc(nn1)SCCSCCS2` returned a TGI of over 100 µM.

Consider `COc1ccc(-c2c(C#N)c(S)n(C3OC(COC(C)=O)C(OC(C)=O)C(OC(C)=O)C3OC(C)=O)c(=O)c2C#N)cc1` (stereo not given), for which the TGI was over 100 µM.

For another experiment, the system named is EKVX NSCLC. The experiment in a line: DTP human tumour cell line panel, 48 h.
For `CCC(=O)C(c1ccccc1)c1ccccn1` (stereo not given), the TGI was over 100 µM.

Consider `CCCN=C1CC(C)Nc2ccccc2N1` (stereo not given), for which the TGI was over 100 µM.

For the molecule `Cc1ccc(-c2cc(N)n(-c3nc4c([nH]3)c(=O)n(C)c(=O)n4C)n2)cc1`, the concentration for total growth inhibition (TGI) worked out at 21.6 µM.

`Cc1sc2nc3n(c(=O)c2c1C)N=CN(c1ccccc1)C3` gave a TGI of over 100 µM.

`COC1O[C@H]2CCN(C(=O)OCc3ccccc3)[C@H]2[C@H]1OCc1ccccc1` (stereo not given in full) registered a TGI of over 100 µM.

On to `COc1ccc(N2C(=O)C3c4[nH]c5ccc([N+](=O)[O-])cc5c4C4CCC(C(C)(C)C)CC4C3C2=O)cc1` (stereo not given), for which the TGI was over 100 µM.

Regarding `O=C(O)c1ccc(NC(c2ccccc2)c2ccc3cccnc3c2O)cc1` (stereo not given), the TGI is over 85.6 µM.

The molecule `COc1ccc(-c2c(C#N)c(N)n(C3OC(CO)C(O)C(O)C3O)c(=S)c2C#N)cc1` (stereo not given) yielded a TGI of over 100 µM.

`CCOC(=O)c1sc2nc(SC)nc3c2c1N=CN3c1ccc(Br)cc1` registered a TGI of over 100 µM.

As to `Cc1c(Cl)cccc1NC(=O)C(=O)C1C(=O)CC(C)(C)CC1=O`, the TGI was over 100 µM.

As to `O=c1[nH]c2nc3ccccc3c(=O)n2/c1=C/c1ccc(O)cc1`, the concentration for total growth inhibition (TGI) was over 100 µM.

For the molecule `CC[C@@H]1CC[C@@H]2[C@H](CC[C@]3(C)[C@@H](O)CC[C@@H]23)[C@H]1C(=O)O`, the TGI was over 100 µM.

With `Nc1nc(Cl)cc(NCC2(CO)CC(CCc3ccccc3)C2)n1` (stereo not given), the TGI was over 100 µM.

Molecule `O=c1c2ccccc2[nH]c(=S)n1-c1ccc(N=Nc2cccc3c(O)cccc23)cc1` returned a TGI of over 100 µM.

Take `N#C/C(=C\NC(=S)Nc1ccc(S(=O)(=O)Nc2ccccn2)cc1)C(N)=O`: the TGI was over 100 µM.

For the molecule `CC(=O)NC1C(OCc2ccccc2)OC(CO)C(O)C1OCC(=O)N[C@@H](C)C(=O)N[C@H](CCC(=O)NCCNCCNc1c2ccccc2nc2cccc([N+](=O)[O-])c12)C(N)=O` (stereo not given in full), the TGI came to 91.1 µM.

`c1cc2nnc1SCCSCCSc1ccc(nn1)SCCSCCS2`: the TGI is over 100 µM.

In the case of `COc1ccc(-c2c(C#N)c(S)n(C3OC(COC(C)=O)C(OC(C)=O)C(OC(C)=O)C3OC(C)=O)c(=O)c2C#N)cc1` (stereo not given), the TGI is over 100 µM.

For a further experiment, the system named is SK-MEL-2 melanoma. The experiment in a line: DTP human tumour cell line panel, 48 h.
`CCC(=O)C(c1ccccc1)c1ccccn1` (stereo not given) yielded a TGI of over 100 µM.

Take `CCCN=C1CC(C)Nc2ccccc2N1` (stereo not given): the total growth inhibition concentration (TGI) is over 100 µM.

The molecule `Cc1ccc(-c2cc(N)n(-c3nc4c([nH]3)c(=O)n(C)c(=O)n4C)n2)cc1` came in with a TGI of 30.8 µM.

The molecule `Cc1sc2nc3n(c(=O)c2c1C)N=CN(c1ccccc1)C3` came in with a TGI of over 100 µM.

Molecule `COC1O[C@H]2CCN(C(=O)OCc3ccccc3)[C@H]2[C@H]1OCc1ccccc1` (stereo not given in full) yielded a TGI of over 100 µM.

As to `COc1ccc(N2C(=O)C3c4[nH]c5ccc([N+](=O)[O-])cc5c4C4CCC(C(C)(C)C)CC4C3C2=O)cc1` (stereo not given), the TGI is over 100 µM.

For the molecule `O=C(O)c1ccc(NC(c2ccccc2)c2ccc3cccnc3c2O)cc1` (stereo not given), the TGI is over 100 µM.

With `COc1ccc(-c2c(C#N)c(N)n(C3OC(CO)C(O)C(O)C3O)c(=S)c2C#N)cc1` (stereo not given), the TGI is over 100 µM.

As to `CCOC(=O)c1sc2nc(SC)nc3c2c1N=CN3c1ccc(Br)cc1`, the total growth inhibition concentration (TGI) was over 100 µM.

With `Cc1c(Cl)cccc1NC(=O)C(=O)C1C(=O)CC(C)(C)CC1=O`, the TGI is over 100 µM.

In turn, `O=c1[nH]c2nc3ccccc3c(=O)n2/c1=C/c1ccc(O)cc1` had a TGI of over 100 µM.

Molecule `CC[C@@H]1CC[C@@H]2[C@H](CC[C@]3(C)[C@@H](O)CC[C@@H]23)[C@H]1C(=O)O` yielded a TGI of over 100 µM.

With `Nc1nc(Cl)cc(NCC2(CO)CC(CCc3ccccc3)C2)n1` (stereo not given), the TGI is over 100 µM.

`O=c1c2ccccc2[nH]c(=S)n1-c1ccc(N=Nc2cccc3c(O)cccc23)cc1` yielded a TGI of over 100 µM.
